In US11396517B1, “Exo-aza spiro inhibitors of menin-MLL interaction” (Janssen Pharmaceutica NV, priority 2017, dated 2022):

How the values were obtained:
MOLM14 = assay: Proliferation assay A (spheroid assay) MOLM14; format: cell-based, human; details: Homo sapiens, MOLM-14, 192 h, MOLM14 cells, 8 d, AUC of confluence against time, absolute IC50; read-out: (3a) Spheroid assay MOLM14 (IC50(μM)) Assay A
Experimental: 3a) Proliferation Assay A
(§1) The anti-proliferative effect of menin/MLL protein/protein interaction inhibitor test compounds was assessed in human leukemia cell lines. The cell lines MV-4-11 and MOLM14 harbor MILL translocations and express the MILL fusion proteins MLL-AF4 and MLL-AF9, respectively, as well as the wildtype protein from the second allele. […] K562 was used as a control cell line containing two MLL wildtype alleles in order to exclude compounds that display general cytotoxic effects.
(§2) MV-4-11 and MOLM14 were cultured in RPMI-1640 (Sigma Aldrich) supplemented with 10% fetal bovine serum (HyClone), 2 mM L-glutamine (Sigma Aldrich) and 50 μg/ml gentamycin (Gibco). K562 were propagated in RPMI-1640 (Sigma Aldrich) supplemented with 20% fetal bovine serum (HyClone), 2 mM L-glutamine (Sigma Aldrich) and 50 μg/ml gentamycin (Gibco).
(§3) In order to assess the anti-proliferative effects, 1,500 MV-4-11, 300 MOLM14 or 750 K562 cells were seeded in 200 μl media per well in 96-well round bottom, ultra-low attachment plates (Costar, catalogue number 7007). Cell seeding numbers were chosen based on growth curves to ensure linear growth throughout the experiment. Test compounds were added at different concentrations and the DMSO content was normalized to 0.3%. Cells were incubated for 8 d at 37° C. and 5% CO2. Spheroid like growth was monitored in real-time by live-cell imaging (IncuCyteZOOM, Essenbio, 4× objective) acquiring one image every four hours for 8 d. Confluence (%) as a measure of spheroid size was determined using an integrated analysis tool.
In order to determine the cumulative effect of the test compounds over time, the area under the curve (AUC) in a plot of confluence against time was calculated. Confluence at the beginning of the experiment (t=0) was used as baseline for the AUC calculation.
Absolute IC50 values were calculated according to the following procedure: % Control=(AUC sample/AUC control)*100
AUC control mean AUC of control values (cells without compound/DMSO as vehicle control)
A non-linear curve fit was applied using the least squares (ordinary) fit method to the plot of % control versus compound concentration. Based on this, the absolute IC50 value (half maximal inhibitory concentration of the test compound causing an anti-proliferative effect of 50% relative to the vehicle control) was calculated.

K562 = assay: Proliferation assay B (spheroid assay) K562 control cell line; format: cell-based; details: Homo sapiens, 192 h; K562 cells (MLL wildtype control), confluence at day 8; read-out: (3b) Spheroid assay K562 Assay B
Experimental: 3b) Proliferation Assay B
as §1, §2
as §3, with “MOLM14 cells” for “MOLM14”, “measured” for “monitored”, “images at day 8.” for “one image every four hours for 8 d.”
In order to determine the effect of the test compounds over time, the confluence in each well as a measure of spheroid size, was calculated. Confluence […] at the beginning of the experiment (t=0) was used as baseline for the calculation.
Absolute IC50 values were calculated as percent change in confluence as follows:
LC=Low Control: cells treated with 1 μM of the cytotoxic agent staurosporin
HC=High Control: Mean confluence (%) (DMSO treated cells) % Effect=100−(100*(Sample−LC)/(HC−LC))
To determine the IC50 a curve is fitted to the plot of % Effect vs Log 10 compound concentration using a sigmoidal fit with a variable slope and fixing the maximum to 100% and the minimum to 0%.

IC50 (MOLM14)	IC50 (K562)	Compound
3.98 µM		FC(F)(F)Cc1cc2c(N3CCC4(CC(Nc5ccc6cc[nH]c6c5)C4)C3)ncnc2s1 (mixture of isomers) [Compound 311]
0.82 µM		Cn1c(=O)[nH]c2cc(CNC3CCC4(C3)CN(c3ncnc5sc(CC(F)(F)F)cc35)C4)ccc21 (stereo not shown) [Compound 54]
0.7 µM		CNC(=O)c1ccc(NC2CC3(CCN(c4ncnc5sc(CC(F)(F)F)cc45)C3)C2)cc1 (stereo not shown) [Compound 93]
	14100 nM	O=c1[nH]c2cc(CNC3CCC4(C3)CN(c3ncnc5sc(CC(F)(F)F)cc35)C4)ccc2o1 (single isomer, unassigned) [Compound 58]
